Data published in patent EP0075141A1, “1,2,5-Oxadiazole-3,4-dicarboxylic-acid derivatives, process for their production, their use and pharmaceutical preparations containing them” (CASSELLA Aktiengesellschaft, priority 1981, dated 1983).

Test system: Bastardhunden
Assay: Haemodynamic study of antianginal and antihypertensive action in anaesthetised mongrel dogs
Type: in vivo
Conditions: dogs under pentobarbital or urethane-chloralose anaesthesia
Procedure: Die Untersuchungen über die antianginöse und antihypertensive Wirkung der Verbindungen der Formel I wurden an Bastardhunden beiderlei Geschlechts in Pentobarbital-Narkose (30 bis 40 mg/ kg i.v.) oder in Urethan-Chloralose-Narkose (3 ml/kg Urethan-Chloralose-Gemisch i.v. = 20 mg/kg Chloralose und 250 mg/kg Urethan) durchgeführt. Die Beatmung der Tiere erfolgte mit einem Bird-Mark-7-Respirator. Der endexpiratorische Kohlensäuregehalt (gemessen mit einem Ultrarotabsorptionsschreiber) betrug zwischen 4,5 und 5 Vol.%. Während des gesamten Versuchs erhielten die Tiere mit Pentobarbital-Narkose eine Dauerinfusion von Pentobarbital i.v. = 4 mg(in 6 ml)/kg/h, um eine konstante Narkosetiefe zu gewährleisten; die Tiere mit Urethan-Chloralose-Narkose erhielten keine Dauerinfusion. Die Infusion wurde durch die Vena cephalica gegeben. Nach der Präparation des Versuchstieres wurde ca. 1 Stunde gewartet, bis sich alle haemodynamischen Parameter eingestellt hatten (steady state). Danach wurde mit dem eigentlichen Versuch begonnen.
Zur Bestimmung des mittleren Blutdrucks (=BDm) wurde der systolische und diastolische Blutdruck peripher in der Arteria femora1is über einen Statham-Druckaufnehmer gemessen. Ein über die Arteria carotis in den linken Ventrikel geschobener Millartip-Katheter lieferte das Signal für den linksventrikulären enddiastolischen Druck (=LVEDP) und die Herzfrequenz (=HF). Mit einem zweiten, über die Venajugularis eingeschobenen Tip-Katheter wurde der mittlere Blutdruck (=PAP) in der Arteria pulmonalis erfaßt.

Row | SMILES | BDm Δ (mittlerer peripherer Blutdruck) (Dosis 1 mg/kg) [mmHg] | HF Δ (Herzfrequenz) (Dosis 1 mg/kg) | LVEDP Δ (linksventrikulärer enddiastolischer Druck) (Dosis 1 mg/kg) | PAP Δ (mittlerer Pulmonalarteriendruck) (Dosis 1 mg/kg) | other results
1 | CCCNC(=O)c1nonc1C(=O)NCCC [CH3CH2CH2NH- / CH3CH2CH2NH-, 1,2,5-Oxadiazol-3,4-bis-(carbonsäurepropylamid)] | -35 | 0 b/min | -0,5 mmHg | +1,1 mmHg | 
2 | CNC(=O)c1nonc1C(=O)NC [H2CNH- / H3CNH-, l,2,5-0xadiazol-3,4-bis-(carbonsäuremethylamid)] |  |  |  |  | BDm Δ (mittlerer peripherer Blutdruck) (Dosis 0,5 mg/kg): -35 mmHg; HF Δ (Herzfrequenz) (Dosis 0,5 mg/kg): +20 b/min; LVEDP Δ (linksventrikulärer enddiastolischer Druck) (Dosis 0,5 mg/kg): -3,5 mmHg; PAP Δ (mittlerer Pulmonalarteriendruck) (Dosis 0,5 mg/kg): -3,0 mmHg
3 | CCOC(=O)c1nonc1C(=O)NC(C)C [H5C2O- / [drawing] (r5)] |  |  |  |  | BDm Δ (mittlerer peripherer Blutdruck) (Dosis 3 mg/kg): -35 mmHg; LVEDP Δ (linksventrikulärer enddiastolischer Druck) (Dosis 3 mg/kg): -2,5 mmHg; PAP Δ (mittlerer Pulmonalarteriendruck) (Dosis 3 mg/kg): -2,0 mmHg
4 | CCOC(=O)c1nonc1C(=O)NCCCN1CCN(c2ccccc2OC)CC1 [H5C2O- / [drawing] (r7)] | -30 |  | -2,5 mmHg | -1 mmHg | 
5 | O=C(NCCO)c1nonc1C(=O)NCCO [HOCH2CH2NH- / HOCH2CH2NH-, 1,2,5-Oxadiazol-3,4-bis-(carbonsäure-ethanolamid)] | -30 | 0 b/min | -1 mmHg | -2,0 mmHg | 
6 | O=C(NCc1cccnc1)c1nonc1C(=O)NCc1cccnc1 [[drawing] / [drawing] (r2)] |  |  |  |  | BDm Δ (mittlerer peripherer Blutdruck) (Dosis 3 mg/kg): -45 mmHg; LVEDP Δ (linksventrikulärer enddiastolischer Druck) (Dosis 3 mg/kg): -8,5 mmHg; PAP Δ (mittlerer Pulmonalarteriendruck) (Dosis 3 mg/kg): -2,4 mmHg
7 | O=C(NC1CCCCC1)c1nonc1C(=O)NC1CCCCC1 [[drawing] / [drawing] (r3)] | -55 | +15 b/min | -10 mmHg | -2,7 mmHg | 
